The test system of one test is m-IMCD3 cells. The test can be described thus: Inhibition of PGE2-stimulated in vitro cyst formation in m-IMCD3 cells (3D culture). To be noted: Mus musculus, mIMCD3, 144 h, mean cyst area, 100% for (DMSO + PGE2) and 0% for DMSO control, 6 days of culture; for activity at 10 µM: read-out: % Cyst area* after incubation with 10 μM test compound; for activity at 3 µM: read-out: % Cyst area* after incubation with 3 μM test compound. The class given is cell-based. The procedure:
(§1) HEK 293 and MDCK cells (Public Health England, Cell Culture Collections) were maintained in Dulbecco's Modified Eagle's Medium (DMEM) supplemented with 10% (v/v) fetal bovine serum (FBS) (Seralab), 2 mM L-glutamine and 100 U/mL penicillin streptomycin cocktail (ThermoFisher); termed complete media. Clonal HEK 293 cell lines were maintained in complete media supplemented with 0.6 mg/ml G418 (Enzo Life Sciences). Mouse inner medullary collecting duct (m-IMCD3) cells [American Type Culture Collection (ATCC)] were maintained in media consisting of DMEM/Hams F-12 50/50 Mix (DMEM F12; Corning) supplemented with penicillin streptomycin cocktail (100 U/mL) and FBS (10% v/v) (DMEM F12-10% FBS).
Experiment 3: Inhibition of In Vitro Cyst Formation in m-IMCD3 Cells Treated with PDE4 Long Form Activators
The mouse Inner Medullary Collecting Duct cell line (m-IMCD3) spontaneously forms cystic spheroids in 3D culture with a Type 1 collagen/Matrigel extracellular matrix. This process can be stimulated with agents which raise intracellular cAMP and is used as an in vitro model for the formation of cystic structures in the kidneys of patients with ADPKD.
Rat Collagen I (Fisher Scientific) is prepared on ice by neutralising with 1M NaOH and diluting with a 2× volume of DMEM/F12+10% FBS. This is mixed 1:1.1 with ice cold Matrigel (Corning) for coating plates (coating mix), and 1:0.93 with Matrigel for cell plating (plating mix).
The assay is conducted in the wells of a 96-well plate culture dish using a total volume of 130 μL of collagen/Matrigel/DMEM F12-10% FBS suspension in growth media for each matrix plug per individual well. Initially, 30 μL of collagen/Matrigel/DMEM F12-10% FBS (coating mix) is added into the well of a 96 well plate and the collagen is set to a gel by incubating at 37° C. for at least 15 minutes. A second layer of 100 μL collagen/Matrigel suspension (plating mix) containing m-IMCD3 cells (2.75×10^6 m-IMCD3 cells per 96-well plate) is layered over the coating mix and the collagen/Matrigel/cell mix again set to a gel by incubating at 37° C. Cell cultures are maintained at 37° C. in an atmosphere of 5% CO2, 95% air.
Between 18 and 24 h after plating, test compound(s) as DMSO stock solutions [0.1% (v/v) final DMSO concentration] and PGE2 (100 nM final concentration) in DMEM F12-10% FBS are added in quadruplicate wells per condition. Media, together with the test compound and PGE2 are replenished after 2 or 3 days. After 6 days of culture z stack images of the wells are captured using the Nikon Eclipse Ti2-E microscope. Nikon General Analysis software is used to measure the following parameters in each well: the mean cyst area, the number of cysts, and the total cyst area.
PDE4 long form activators inhibited in vitro cyst formation in m-IMCD3 cells. Data are shown in Table 4 as mean cyst area (%), compared to 100% for (DMSO+PGE2) and 0% for DMSO control.

Test [1] concerns m-IMCD3 cells expressing PDE4 long forms. As to the kind of experiment: cAMP levels in assay media of PGE2-stimulated m-IMCD3 3D cell culture. The class given is cell-based. As to conditions: Mus musculus, mIMCD3, compared to 100% for (DMSO + PGE2), read-out: cAMP level (% of PGE2-stimulated); for activity at 10 µM: 10 μM test compound; for activity at 3 µM: 3 μM test compound. The procedure: as §1
Experiment 2: Reduction of CAMP Levels in m-IMCD3 Cell Culture Treated with PDE4 Long Form Activators
Activation of intracellular PDE4 long forms leads to a reduction of both intracellular CAMP and externalised cAMP (Omar et al., PNAS 116:13320-13329, 2019). This reduction may be measured in the cell culture media supernatant of 3D cystic cell cultures, such as in the m-IMCD3 cell cyst suppression assay described in Experiment 3.
Following the completion of the m-IMCD3 cell cyst suppression assay (Experiment 3), the CAMP levels in the assay media from individual or pooled assay wells was measured using a CAMP ELISA kit (Enzo Life Sciences) or a LANCE Ultra CAMP kit (PerkinElmer) according to the manufacturer's instructions.
Treatment with PDE4 long form activators reduced CAMP levels in PGE2-stimulated m-IMCD3 cell culture.

Each structure is given as a SMILES string.

With `O=C(CC1CCC(F)(F)CC1)N1CCc2nc(N3C4CCC3CNC4)ccc2C1` [Example 40, 1-(2-(3,8-diazabicyclo[3.2.1]octan-8-yl)-7,8-dihydro-1,6-naphthyridin-6(5H)-yl)-2-(4,4-difluorocyclohexyl)ethan-1-one], the activity at 10 µM was determined as 0% in the test on m-IMCD3 cells and 43% in test [1]. As for `CC(C)(C)CC(=O)N1CCc2nc(N3C4CCC3CNC4)ccc2C1` [Example 42, 1-(2-(3,8-diazabicyclo[3.2.1]octan-8-yl)-7,8-dihydro-1,6-naphthyridin-6(5H)-yl)-3,3-dimethylbutan-1-one], the activity at 10 µM with m-IMCD3 cells was 0%. Also, the activity at 3 µM in test [1] worked out at 28%.

For `CN1CC2CCC(C1)N2c1ccc2c(n1)CN(C(=O)NC1CCC(F)(F)CC1)C2` [Example 91, N-(4,4-difluorocyclohexyl)-2-(3-methyl-3,8-diazabicyclo[3.2.1]octan-8-yl)-5,7-dihydro-6H-pyrrolo[3,4-b]pyridine-6-carboxamide], in the test with m-IMCD3 cells, the activity at 10 µM is -5%. The activity at 3 µM in test [1] stood at 31%.

`O=C(CC1CCC(F)(F)CC1)N1CCc2nc(N3CCNCC3)ccc2C1` [Example 111, 2-(4,4-difluorocyclohexyl)-1-(2-(piperazin-1-yl)-7,8-dihydro-1,6-naphthyridin-6(5H)-yl)ethan-1-one]: the activity at 10 µM in the test with m-IMCD3 cells is -3%; in test [1], 38%.

For `O=C(CC1CCCC1)N1CCc2nc(N3CCN4CCC[C@@H]4C3)ccc2C1` [Example 112, (R)-2-cyclopentyl-1-(2-(hexahydropyrrolo[1,2-a]pyrazin-2 (1H)-yl)-7,8-dihydro-1,6-naphthyridin-6(5H)-yl)ethan-1-one], the activity at 10 µM with m-IMCD3 cells was -6%. For the same molecule, the activity at 3 µM in test [1] stood at 54%. Regarding `O=C(CC1CCCC1)N1CCc2nc(N3CCN4CCC[C@H]4C3)ccc2C1` [Example 113, (S)-2-cyclopentyl-1-(2-(hexahydropyrrolo[1,2-a]pyrazin-2 (1H)-yl)-7,8-dihydro-1,6-naphthyridin-6(5H)-yl)ethan-1-one], in the test on m-IMCD3 cells, the activity at 10 µM is -4%. Besides, the activity at 3 µM in test [1] is 63%. Taken in the same sequence, the figures for `O=C(CC1CCCC1)N1CCc2nc(C3CCNCC3)ccc2C1` [Example 114, 2-cyclopentyl-1-(2-(piperidin-4-yl)-7,8-dihydro-1,6-naphthyridin-6(5H)-yl)ethan-1-one] were -2% and 47%. As for `O=C(CC1CCCC1)N1CCc2nc(C3CCN(CCO)CC3)ccc2C1` [Example 115, 2-cyclopentyl-1-(2-(1-(2-hydroxyethyl)piperidin-4-yl)-7,8-dihydro-1,6-naphthyridin-6(5H)-yl)ethan-1-one], in the test with m-IMCD3 cells, the activity at 10 µM is -3%. In test [1], the activity at 3 µM was 32%. Turning to `COc1ccccc1C(=O)N1CCc2nc(N3C4CCC3CNC4)ccc2C1` [Example 121, (2-(3,8-diazabicyclo[3.2.1]octan-8-yl)-7,8-dihydro-1,6-naphthyridin-6(5H)-yl)(2-methoxyphenyl)methanone], the activity at 3 µM with m-IMCD3 cells was 8%; in test [1], 44%. For `Cc1ccccc1C(=O)N1CCc2nc(N3C4CCC3CNC4)ccc2C1` [Example 122, (2-(3,8-diazabicyclo[3.2.1]octan-8-yl)-7,8-dihydro-1,6-naphthyridin-6(5H)-yl)(o-tolyl)methanone], the activity at 3 µM in the test on m-IMCD3 cells was -1%; in test [1], 66%.

Take `CC1(CC(=O)N2Cc3ccc(N4C5CCC4CNC5)nc3C2)CCCC1` [Example 129, 1-(2-(3,8-diazabicyclo[3.2.1]octan-8-yl)-5,7-dihydro-6H-pyrrolo[3,4-b]pyridin-6-yl)-2-(1-methylcyclopentyl)ethan-1-one]: the activity at 10 µM with m-IMCD3 cells was 2%. Moreover, in test [1], the activity at 3 µM was 44%. With `O=C(Cc1ccccc1)N1CCc2nc(N3CCNCC3)ncc2C1` [Example 134, 2-phenyl-1-(2-(piperazin-1-yl)-7,8-dihydropyrido[4,3-d]pyrimidin-6(5H)-yl)ethan-1-one], the activity at 3 µM came out at 7% with m-IMCD3 cells and 55% in test [1]. In the case of `N#Cc1ccc(CC(=O)N2CCc3nc(N4C5CCC4CNC5)ncc3C2)cc1` [Example 136, 4-(2-(2-(3,8-diazabicyclo[3.2.1]octan-8-yl)-7,8-dihydropyrido[4,3-d]pyrimidin-6(5H)-yl)-2-oxoethyl)benzonitrile], the activity at 3 µM stood at 1% with m-IMCD3 cells and 38% in test [1]. Turning to `O=C(c1ccc(F)cc1)N1CCc2nc(N3CCNCC3)ncc2C1` [Example 147, (4-fluorophenyl)(2-(piperazin-1-yl)-7,8-dihydropyrido[4,3-d]pyrimidin-6(5H)-yl)methanone], the activity at 3 µM came to 4% with m-IMCD3 cells and 40% in test [1].

With `CCN1CCN(c2ccc3c(n2)CCN(C(=O)CC(C)(C)C)C3)CC1` [Example 150, 1-(2-(4-ethylpiperazin-1-yl)-7,8-dihydro-1,6-naphthyridin-6(5H)-yl)-3,3-dimethylbutan-1-one], the values for the activity at 3 µM (with m-IMCD3 cells; in test [1]) were -1% and 49%, respectively.

On to `O=C(CC1CCCC1)N1CCc2nc(N3C[C@@H]4C[C@H]3CN4)ccc2C1` [Example 155, 1-(2-((1S,4S)-2,5-diazabicyclo[2.2.1]heptan-2-yl)-7,8-dihydro-1,6-naphthyridin-6(5H)-yl)-2-cyclopentylethan-1-one], for which the activity at 3 µM in test [1] is 63%.

Regarding `O=C(CC1CCCC1)N1CCc2cc(N3C4CCC3CNC4)cnc2C1` [Example 177, 1-(3-(3,8-diazabicyclo[3.2.1]octan-8-yl)-5,8-dihydro-1,7-naphthyridin-7 (6H)-yl)-2-cyclopentylethan-1-one], the activity at 3 µM with m-IMCD3 cells was 10%. In the case of `O=C(CC1CCCC1)N1CCc2cc(N3C4CCC3CNC4)ncc2C1` [Example 178, 1-(6-(3,8-diazabicyclo[3.2.1]octan-8-yl)-3,4-dihydro-2,7-naphthyridin-2 (1H)-yl)-2-cyclopentylethan-1-one], in the test on m-IMCD3 cells, the activity at 3 µM came to 1%. In the case of `O=C(CC1CCCC1)N1CCc2cnc(N3C4CCC3CNC4)cc2C1` [Example 179, 1-(7-(3,8-diazabicyclo[3.2.1]octan-8-yl)-3,4-dihydro-2,6-naphthyridin-2 (1H)-yl)-2-cyclopentylethan-1-one], the activity at 3 µM with m-IMCD3 cells was found to be 1%. `O=C(COc1ccc(F)cc1)N1CCc2nc(N3CCNCC3)ccc2C1` [Example 180, 2-(4-fluorophenoxy)-1-(2-(piperazin-1-yl)-7,8-dihydro-1,6-naphthyridin-6(5H)-yl)ethan-1-one]: the activity at 3 µM in the test with m-IMCD3 cells was 11%.

As to `Cc1ncccc1-c1ccc2c(n1)CCN(C(=O)CC1CCCC1)C2` [Example 181, 2-cyclopentyl-1-(2-(2-methylpyridin-3-yl)-7,8-dihydro-1,6-naphthyridin-6(5H)-yl)ethan-1-one], in the test on m-IMCD3 cells, the activity at 3 µM was found to be 26%. As for `Cc1cncc(-c2ccc3c(n2)CCN(C(=O)CC2CCCC2)C3)c1` [Example 182, 2-cyclopentyl-1-(2-(5-methylpyridin-3-yl)-7,8-dihydro-1,6-naphthyridin-6(5H)-yl)ethan-1-one], the activity at 3 µM in the test on m-IMCD3 cells stood at 50%.
